From patent US9248128B2, “Method for enhancing remyelination using GLI1 inhibitors” (NEW YORK UNIVERSITY, priority 2012, dated 2016)

Assays:
Hh pathway = conditions: Peukert and Miller-Moslin, ChemMedChem 2010; cited from earlier work
Gli1^het;RCE mice = assay: GANT61 infusion into lateral ventricle during cuprizone demyelination/remyelination; GFP-labeled cells in Corpus Callosum by immunofluorescence; assay type: in vivo, mouse; conditions: n=3
Description: 10 week old mice were administered 5 mg Tamoxifen (Sigma) in corn oil on alternate days for total of 4 intraperitoneal (i.p.) injections. Gli1^het;RCE, mice, maintained on the Swiss-Webster background, were fed 0.4% cuprizone (Matsushima and Morell, 2001, Brain Pathol., 11:107-116; Elsworth & Howell, Research in Veterinary Science, 14:385-387, 1973). […] For the LPC model, 2 μl 1% LPC (Calbiochem) were stereotaxically injected into the CC at 1.5 mm anterior, 1.2 mm lateral and 2.2 mm ventral to bregma.
GANT61 (Enzo Life Sciences product #ALX-270-482) (5.6 mg/Kg per day; compound in 50% DMSO and 15% Ethanol in PEG400) or vehicle (50% DMSO+15% Ethanol in PEG400) were delivered via mini-osmotic pump (model 2004, Durect) at a rate of 0.25 μl/h for 4 weeks into the lateral ventricle of Gli^het;RCE mice at 0.5 mm Anterior, 0.75 mm lateral and 2.5 mm ventral to the bregma.
For Black-Gold (Millipore) staining, mice were perfused with 4% PFA and 20 μm coronal sections were stained according to manufacturer's protocol. For all other analysis, mice were perfused with Prefer (Anatech) and 20 μm coronal sections were stained with X-gal (Ahn & Joyner, Nature, 437:894-897, 2005) or processed for immunofluorescence with rabbit or chicken anti-GFP (1:1,000, Invitrogen) and one of the following antibodies: rat anti-PDGFRα (1:200, BD Biosciences); rabbit anti-NG2 (1:200, Millipore) and β4 spectrin (1:4,000 from M. Rasband); mouse anti-CC1 (1:400, Calbiochem), anti-GFAP (1:400, Sigma), anti-MOG (1:50, Sigma) and guinea pig anti-Caspr (1:3,000 from M. Bhat). Secondary antibodies were goat anti-species conjugated to Alexafluor-488, 594 or -680 (1:1,000, Molecular Probes). Nuclei were counterstained with Hoechst 33258 (1:5,000, Invitrogen). Fluorescent images were obtained as Z-stacks of 1 μm optical sections using a confocal laser-scanning microscope (LSM 510, Zeiss) and processed using Adobe Photoshop. At least 10 sections/mouse were analyzed and data from at least 3 mice were combined to determine the average and standard deviation. Student's t-test was performed to calculate P values.
To assess whether a strategy of inhibiting Gli1 could potentially be used therapeutically, GANT61, a small molecule inhibitor of Gli1 (Lauth et al., Proc. Natl. Acad. Sci. U.S.A., 104:8455-8460, 2007), was infused into the lateral ventricle of Gli1^het;RCE mice via a mini-osmotic pump. The infusion was started after 4 weeks of cuprizone diet and was continued for an additional 2 weeks on cuprizone and 2 weeks off cuprizone for a total of 4 weeks. Mice were then sacrificed and analyzed (FIG. 4a).

| Compound | selectivity for the Hh pathway over TNF/NFkN signaling, glucocorticoid receptor gene transactivation, and the Ras-Raf-Mek-Mapk cascade (Hh pathway) | numbers of labeled cells in the CC (Gli1^het;RCE mice; 5.6 mg/Kg per day via mini-osmotic pump for 4 weeks (2 weeks on, 2 weeks off cuprizone), mean±SD, vehicle 6.4±5) | proportion of differentiated oligodendrocytes among GFP-labeled cells (Gli1^het;RCE mice; 5.6 mg/Kg per day via mini-osmotic pump for 4 weeks, mean±SD, vehicle 21.4±18.7%) | increase in GFP-labeled cells in the CC (Gli1^het;RCE mice; FIG. 4C, versus control infusion) | percentage of mature oligodendrocytes (Gli1^het;RCE mice; FIG. 4D, versus control infusion, Student's T test) |
| --- | --- | --- | --- | --- | --- |
| CN(C)c1ccccc1CN1CCCN(Cc2ccccc2N(C)C)C1c1ccncc1 [GANT61] | display selectivity for the Hh pathway | 43.8±22.1 per section | 65.4±7.5% | ~7 fold | significant increase |
| c1cc(-c2sc(-c3ccncc3)c(-c3ccncc3)c2-c2ccncc2)ccn1 [GANT58] | display selectivity for the Hh pathway |  |  |  |  |
